Test system: schizophrenia
Procedure: At the initiation of hydrogen gas inhalation, a drug therapy with Abilify (intramuscular injection, 400 mg/month, once) and Lexotan tablets (oral administration, 6 mg/day, 3 times per day) was carried out.
Conditions of hydrogen gas inhalation were as follows:
For 40 days after initiation of inhalation: once per day, 70 mL/minute;
The subsequent 1 month: 2 hours per day, 70 mL/minute, hydrogen gas concentration: 3.0 to 4.0%;
The subsequent 4 months: 2 hours per day, 140 mL/minute, hydrogen gas concentration: 6.0 to 7.0%;
The subsequent 4 months: 6 hours per day, 280 mL/minute, hydrogen gas concentration: 6.0 to 7.0% (two hydrogen inhalers were used).
Thereafter, the patient was allowed to inhale hydrogen gas (6.0 to 7.0%, 280 mL/minute) for 6 hours/day, continuously for 9 months.

[1] = about 10 months after initiation of hydrogen inhalation

[HH] [hydrogen gas]
time for which injection of a medicine (once a month) was continued after initiation of hydrogen inhalation, thereafter stopped (Abilify intramuscular injection, 400 mg/month): 8 months
time after initiation of hydrogen inhalation at which administration of the oral medicine was terminated (Lexotan tablets, oral, 6 mg/day, hydrogen once per day, 70 mL/minute): Ten
disease-state in the period during which hydrogen inhalation was continued [1]: stably maintained
phase of the disease [1]: recovery phase
time after initiation of inhalation when use of the sleeping pill was stopped (brotizolam tablet, 0.25 mg/day): About 6 months
time after initiation of inhalation when the patient started to fall asleep without taking the sleeping pill (brotizolam tablet, 0.25 mg/day, every day at initiation): about 2 months
value of the patient in the examination (examination in January of 2019): the same as in a healthy person
disease state according to medical examination during an office visit (further 9 months of hydrogen gas 6.0 to 7.0%, 280 mL/minute, 6 hours/day): stable
recurrence after inhalation of hydrogen gas was stopped (inhalation stopped in March of 2019): no recurrence occurred
consecutive symptom, hallucination (patient, schizophrenia onset 13 years ago, on Abilify and Lexotan, after initiation of hydrogen inhalation, 3.0 to 6.0%): disappeared

From US11033574B2, “Method for treating schizophrenia” (MiZ Company Limited, priority 2018, dated 2021)
